Results taken from patent US5219884A, “Immunosuppressant” (Taito Co., Ltd., priority 1990, dated 1993).
Like-named read-outs stand apart in the source and are kept apart here.

Columns and labels:
[1] = test system: IL2-dependent mouse cell line CTLL-2; experiment: suppression of IL-2 induced 3H-thymidine incorporation of CTLL-2; format: cell-based; conditions: 72 hrs, second run (control 30168 cpm)
[2] = cytotoxicity to mouse L929 cells; format: cell-based; conditions: mouse, l929 cells, read-out: Suppression
mouse L929 cells = experiment: cytotoxicity to mouse L929 cells; format: cell-based; conditions: 550 nm
in vitro = format: cell-based, human; conditions: human, read-out: Suppression
CCRF-CEM = experiment: in vitro; format: cell-based, human
HL60 = experiment: in vitro; format: cell-based, human
K562 = experiment: in vitro; format: cell-based, human
KB = experiment: in vitro; format: cell-based, human
PC-14 = experiment: in vitro; format: cell-based, human
U937 = experiment: in vitro; format: cell-based, human
[3] = cytotoxicity to tumor cell line MOLT4; format: cell-based, human; conditions: human, molt4 cells, read-out: Suppression
Procedure, shortened: (§1)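 Human tumour lines at 2×10^5 cells/ml in RPMI1640 with 20% FCS were mixed 1:1 with test solution and cultured 72 h at 37° C, 5% CO2. MTT colorimetry at 550 nm; percent suppression served as the cytotoxicity index.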

MOLT4 = experiment: cytotoxicity to tumor cell line MOLT4; format: cell-based, human
Procedure, shortened: as §1

CCCCCCC(=O)CCCCCC/C=C/CC1OC(=O)C(CO)(NC(C)=O)C1O (stereo not shown) [Example 11]
3H-thymidine uptake ([1]; 0.1 μg/ml): 33948 cpm
3H-thymidine uptake ([1]; 1 μg/ml): 4876 cpm
inhibition at 0.1 µg/mL ([1]; Mus musculus, CTLL-2, 0.1 μg/ml, read-out: Suppression): 0%
inhibition at 1 µg/mL ([1]; Mus musculus, CTLL-2, 1 μg/ml): 84%
cytotoxicity at 48 h ([2]; 1 μg/ml): 0%
cytotoxicity at 48 h ([2]; 10 μg/ml): 0%
cytotoxicity at 48 h ([2]; 100 μg/ml): 91.8%
Absorbancy (mouse L929 cells; 1 μg/ml): 0.710
Absorbancy (mouse L929 cells; 10 μg/ml): 0.669
Absorbancy (mouse L929 cells; 100 μg/ml): 0.047
cytotoxicity at 72 h (in vitro; ccrf-cem cells, 0.1 μg/ml): 0%
cytotoxicity at 72 h (in vitro; ccrf-cem cells, 1.0 μg/ml): 4.2%
cytotoxicity at 72 h (in vitro; ccrf-cem cells, 10.0 μg/ml): 12.9%
cytotoxicity at 72 h (in vitro; hl60 cells, 0.1 μg/ml): 9%
cytotoxicity at 72 h (in vitro; hl60 cells, 1.0 μg/ml): 12.6%
cytotoxicity at 72 h (in vitro; hl60 cells, 10.0 μg/ml): 27%
cytotoxicity at 72 h (in vitro; k562 cells, 0.1 μg/ml): 17.7%
cytotoxicity at 72 h (in vitro; k562 cells, 1.0 μg/ml): 12.5%
cytotoxicity at 72 h (in vitro; k562 cells, 10.0 μg/ml): 34.5%
cytotoxicity at 72 h (in vitro; kb cells, 0.1 μg/ml): 7%
cytotoxicity at 72 h (in vitro; kb cells, 1.0 μg/ml): 5.8%
cytotoxicity at 72 h (in vitro; kb cells, 10.0 μg/ml): 30.1%
cytotoxicity at 72 h (in vitro; pc-14 cells, 0.1 μg/ml): 6.5%
cytotoxicity at 72 h (in vitro; pc-14 cells, 1.0 μg/ml): 12.7%
cytotoxicity at 72 h (in vitro; pc-14 cells, 10.0 μg/ml): 40%
cytotoxicity at 72 h (in vitro; u937 cells, 0.1 μg/ml): 0%
cytotoxicity at 72 h (in vitro; u937 cells, 1.0 μg/ml): 0%
cytotoxicity at 72 h (in vitro; u937 cells, 10.0 μg/ml): 23%
Absorbancy (CCRF-CEM; 0.1 μg/ml): 0.694
Absorbancy (CCRF-CEM; 1.0 μg/ml): 0.663
Absorbancy (CCRF-CEM; 10.0 μg/ml): 0.603
Absorbancy (HL60; 0.1 μg/ml): 0.475
Absorbancy (HL60; 1.0 μg/ml): 0.456
Absorbancy (HL60; 10.0 μg/ml): 0.381
Absorbancy (K562; 0.1 μg/ml): 0.317
Absorbancy (K562; 1.0 μg/ml): 0.337
Absorbancy (K562; 10.0 μg/ml): 0.257
Absorbancy (KB; 0.1 μg/ml): 0.679
Absorbancy (KB; 1.0 μg/ml): 0.688
Absorbancy (KB; 10.0 μg/ml): 0.510
Absorbancy (PC-14; 0.1 μg/ml): 0.443
Absorbancy (PC-14; 1.0 μg/ml): 0.413
Absorbancy (PC-14; 10.0 μg/ml): 0.284
Absorbancy (U937; 0.1 μg/ml): 0.598
Absorbancy (U937; 1.0 μg/ml): 0.583
Absorbancy (U937; 10.0 μg/ml): 0.449
cytotoxicity at 72 h ([3]; 0.1 μg/ml): 0%
cytotoxicity at 72 h ([3]; 1.0 μg/ml): 0%
cytotoxicity at 72 h ([3]; 10.0 μg/ml): 11.7%
Absorbancy (MOLT4; 0.1 μg/ml): 0.182
Absorbancy (MOLT4; 1.0 μg/ml): 0.150
Absorbancy (MOLT4; 10.0 μg/ml): 0.128
